Source: ChEMBL document CHEMBL1268965, “Synthesis and antifungal activity of a novel series of 13-(4-isopropylbenzyl)berberine derivatives” (Bioorg Med Chem Lett, 2010)
In brackets after ≈: the same amount, converted by molar mass.

Key:
[1] = test system: Aspergillus fumigatus; test: Antifungal activity against Aspergillus fumigatus ATCC 16424 after 24 hrs by two fold serial dilution method; format: functional; settings: ATCC 16424, 24 h
[2] = test system: Aspergillus terreus; test: Antifungal activity against Aspergillus terreus ATCC 46941 after 24 hrs by two fold serial dilution method; format: functional; settings: ATCC 46941, 24 h
[3] = test system: Cryptococcus neoformans; test: Antifungal activity against Cryptococcus neoformans ATCC 36556 after 24 hrs by two fold serial dilution method; format: functional; settings: ATCC 36556, 24 h
[4] = test system: Pichia kudriavzevii; test: Antifungal activity against Candida krusei ATCC 6258 after 24 hrs by two fold serial dilution method; format: functional; settings: ATCC 6258, 24 h
[5] = test system: Candida albicans; test: Antifungal activity against Candida albicans ATCC 10231 after 24 hrs by two fold serial dilution method; format: functional; settings: ATCC 10231, 24 h
[6] = test system: Candida tropicalis; test: Antifungal activity against Candida tropicalis ATCC 13803 after 24 hrs by two fold serial dilution method; format: functional; settings: ATCC 13803, 24 h
[7] = test system: Clavispora lusitaniae; test: Antifungal activity against Candida lusitaniae ATCC 42720 after 24 hrs by two fold serial dilution method; format: functional; settings: ATCC 42720, 24 h
[8] = test system: Mus musculus; test: Toxicity ICR mouse assessed as effect on internal organ morphology at 33 to 900 mg/kg, po after 7 days by microscopy; format: organism-based; parameters: dose 33-900 mg/kg, route oral; settings: in vivo, 168 h
[9] = Toxicity in po dosed ICR mouse after 7 days; format: organism-based; settings: in vivo
[10] = test system: Mus musculus; test: Toxicity ICR mouse assessed as appearance of clinical signs at 33 to 900 mg/kg, po after 7 days; format: organism-based; parameters: dose 33-900 mg/kg, route oral; settings: in vivo, 168 h
[11] = test system: Mus musculus; test: Toxicity ICR mouse assessed as effect on body weight at 33 to 900 mg/kg, po after 7 days; format: organism-based; parameters: dose 33-900 mg/kg, route oral; settings: in vivo, 168 h
[12] = test system: Mus musculus; test: Toxicity ICR mouse assessed as mortality at 33 to 900 mg/kg, po after 7 days; format: organism-based; parameters: dose 33-900 mg/kg, route oral; settings: in vivo, 168 h

| Compound | MIC [1] | MIC [2] | MIC [3] | MIC [4] | MIC [5] | MIC [6] | MIC [7] | Activity [8] | LD50 at 168 h [9] | Activity [10] | Activity [11] | Activity [12] |
| --- | --- | --- | --- | --- | --- | --- | --- | --- | --- | --- | --- | --- |
| COc1ccc2c(Cc3ccc(C(C)C)cc3)c3[n+](cc2c1OC)CCc1cc2c(cc1-3)OCO2 | 64 µg/mL | 32 µg/mL | 4 µg/mL | 4 µg/mL | 4 µg/mL | 1 µg/mL | 1 µg/mL | – | – | – | – | – |
| COc1ccc2c(Cc3ccc(C(C)C)cc3)c3[n+](cc2c1OCc1ccccc1)CCc1cc2c(cc1-3)OCO2.[Cl-] | 64 µg/mL | 32 µg/mL | 4 µg/mL | 4 µg/mL | 4 µg/mL | 4 µg/mL | 4 µg/mL | – | – | – | – | – |
| COc1ccc2c(Cc3ccc(C(C)C)cc3)c3[n+](cc2c1OCc1ccc(C(C)C)cc1)CCc1cc2c(cc1-3)OCO2.[Cl-] | 4 µg/mL | 8 µg/mL | 2 µg/mL | 2 µg/mL | 1 µg/mL | 1 µg/mL | 1 µg/mL | – | – | – | – | – |
| COc1ccc2c(Cc3ccc(C(C)C)cc3)c3[n+](cc2c1OCc1ccc(C(C)(C)C)cc1)CCc1cc2c(cc1-3)OCO2.[Cl-] | 4 µg/mL | 8 µg/mL | 2 µg/mL | 4 µg/mL | 1 µg/mL | 1 µg/mL | 1 µg/mL | – | – | – | – | – |
| COc1ccc2c(Cc3ccc(C(C)C)cc3)c3[n+](cc2c1OCc1ccc(C(F)(F)F)cc1)CCc1cc2c(cc1-3)OCO2.[Cl-] | 16 µg/mL | 16 µg/mL | 4 µg/mL | 4 µg/mL | 2 µg/mL | 2 µg/mL | 2 µg/mL | – | – | – | – | – |
| COc1ccc2c(Cc3ccc(C(C)C)cc3)c3[n+](cc2c1OCc1ccc(OC(F)(F)F)cc1)CCc1cc2c(cc1-3)OCO2.[Cl-] | 32 µg/mL | 16 µg/mL | 4 µg/mL | 4 µg/mL | 2 µg/mL | 2 µg/mL | 2 µg/mL | – | – | – | – | – |
| COc1ccc2c(Cc3ccc(C(C)C)cc3)c3[n+](cc2c1OCc1cc(F)c(F)c(F)c1)CCc1cc2c(cc1-3)OCO2.[Cl-] | 32 µg/mL | 32 µg/mL | 4 µg/mL | 4 µg/mL | 4 µg/mL | 4 µg/mL | 4 µg/mL | – | – | – | – | – |
| C/C=C/COc1c(OC)ccc2c(Cc3ccc(C(C)C)cc3)c3[n+](cc12)CCc1cc2c(cc1-3)OCO2.[Cl-] | 2 µg/mL | 4 µg/mL | 1 µg/mL | 1 µg/mL | 0.5 µg/mL | 0.5 µg/mL | 0.5 µg/mL | – | – | – | – | – |
| COc1ccc2c(Cc3ccc(C(C)C)cc3)c3[n+](cc2c1OC(C)(C)C)CCc1cc2c(cc1-3)OCO2.[Cl-] | 32 µg/mL | 32 µg/mL | 4 µg/mL | 4 µg/mL | 4 µg/mL | 1 µg/mL | 1 µg/mL | – | – | – | – | – |
| COc1ccc2c(Cc3ccc(C(C)C)cc3)c3n(cc-2c1=O)CCc1cc2c(cc1-3)OCO2 | > 128 µg/mL | > 128 µg/mL | 4 µg/mL (≈ 8.82 µM) | 16 µg/mL (≈ 35.3 µM) | 16 µg/mL (≈ 35.3 µM) | 16 µg/mL (≈ 35.3 µM) | 16 µg/mL (≈ 35.3 µM) | – | – | – | – | – |
| COc1ccc2c(Cc3ccc(C(C)C)cc3)c3[n+](cc2c1OC(C)=O)CCc1cc2c(cc1-3)OCO2.[Cl-] | > 128 µg/mL | > 128 µg/mL | 8 µg/mL | 16 µg/mL | 16 µg/mL | 16 µg/mL | 16 µg/mL | – | – | – | – | – |
| CCCC(=O)Oc1c(OC)ccc2c(Cc3ccc(C(C)C)cc3)c3[n+](cc12)CCc1cc2c(cc1-3)OCO2.[Cl-] | > 128 µg/mL | > 128 µg/mL | 4 µg/mL | 8 µg/mL | 8 µg/mL | 8 µg/mL | 8 µg/mL | – | – | – | – | – |
| CCCOc1c(OC)ccc2c(Cc3ccc(C(C)C)cc3)c3[n+](cc12)CCc1cc2c(cc1-3)OCO2.[Cl-] | 4 µg/mL | 8 µg/mL | 2 µg/mL | 2 µg/mL | 1 µg/mL | 0.5 µg/mL | 0.5 µg/mL | – | – | – | – | – |
| CCCCOc1c(OC)ccc2c(Cc3ccc(C(C)C)cc3)c3[n+](cc12)CCc1cc2c(cc1-3)OCO2.[Cl-] | 2 µg/mL | 4 µg/mL | 1 µg/mL | 1 µg/mL | 0.5 µg/mL | 0.25 µg/mL | 0.25 µg/mL | Non-toxic | 900 mg/kg | Non-toxic | Non-toxic | Non-toxic |
| C=CCOc1c(OC)ccc2c(Cc3ccc(C(C)C)cc3)c3[n+](cc12)CCc1cc2c(cc1-3)OCO2.[Cl-] | 8 µg/mL | 8 µg/mL | 2 µg/mL | 2 µg/mL | 1 µg/mL | 1 µg/mL | 1 µg/mL | – | – | – | – | – |
| CCC(C)(C)Oc1c(OC)ccc2c(Cc3ccc(C(C)C)cc3)c3[n+](cc12)CCc1cc2c(cc1-3)OCO2.[Cl-] | 32 µg/mL | 16 µg/mL | 4 µg/mL | 4 µg/mL | 2 µg/mL | 1 µg/mL | 1 µg/mL | – | – | – | – | – |
| COc1ccc2c(Cc3ccc(C(C)C)cc3)c3[n+](cc2c1OCCCO)CCc1cc2c(cc1-3)OCO2.[Cl-] | 8 µg/mL | 8 µg/mL | 2 µg/mL | 2 µg/mL | 2 µg/mL | 1 µg/mL | 1 µg/mL | – | – | – | – | – |
| C[C@@H]1[C@H](O)[C@@H](C)/C=C/C=C/C=C/C=C/C=C/C=C/C=C/[C@H](O[C@@H]2O[C@H](C)[C@@H](O)[C@H](N)[C@@H]2O)C[C@@H]2O[C@](O)(C[C@@H](O)C[C@@H](O)[C@H](O)CC[C@@H](O)C[C@@H](O)CC(=O)O[C@H]1C)C[C@H](O)[C@H]2C(=O)O [AMPHOTERICIN B] | 1 µg/mL (≈ 1.08 µM) | 16 µg/mL (≈ 17.3 µM) | 0.25 µg/mL (≈ 0.271 µM) | 0.5 µg/mL (≈ 0.541 µM) | 0.5 µg/mL (≈ 0.541 µM) | 0.5 µg/mL (≈ 0.541 µM) | 1 µg/mL (≈ 1.08 µM) | – | – | – | – | – |
